Reference: PubChem BioAssay (NCI)
Several values for one entry are separate records, joined by “and”; a condition that tells them apart may be missing. Identical values can stand only once.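 Dose response: 5 concentrations. Exposure: 48 h. Format: 96-well plates. Endpoint: linear interpolation; highest concentration if not reached. The concentration for 50% growth inhibition is given as GI50. TGI denotes the concentration required for complete inhibition of growth.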

How the values were obtained:
Experiment in all cases: inhibition of tumour cell growth, NCI panel, 48 h
ACHN renal = tested on: ACHN renal
CAKI-1 renal = tested on: CAKI-1 renal
IGROV1 ovarian = tested on: IGROV1 ovarian
RXF 393 renal = tested on: RXF 393 renal
SF-295 CNS = tested on: SF-295 CNS
SK-MEL-5 melanoma = tested on: SK-MEL-5 melanoma
SNB-75 CNS = tested on: SNB-75 CNS
SR leukemia = tested on: SR leukemia
UACC-257 melanoma = tested on: UACC-257 melanoma
RPMI-8226 leukemia = tested on: RPMI-8226 leukemia

Structure (SMILES) | TGI (ACHN renal) | TGI (CAKI-1 renal) | TGI (IGROV1 ovarian) | TGI (RXF 393 renal) | TGI (SF-295 CNS) | TGI (SK-MEL-5 melanoma) | TGI (SNB-75 CNS) | TGI (SR leukemia) | TGI (UACC-257 melanoma) | GI50 (ACHN renal) | GI50 (CAKI-1 renal) | GI50 (IGROV1 ovarian) [µM] | GI50 (RPMI-8226 leukemia) [µM] | TGI (RPMI-8226 leukemia) [µM] | GI50 (RXF 393 renal) | GI50 (SF-295 CNS) | GI50 (SK-MEL-5 melanoma) | GI50 (SNB-75 CNS) | GI50 (UACC-257 melanoma) | GI50 (SR leukemia) [µM]
CC(=O)OCc1cc2ccccc2nc1C(Br)(Br)Br | 27.3 µM | 29.5 µM | 25.7 µM | 33.4 µM | 32.9 µM | 23.9 µM | 39.9 µM | 13.7 µM | 27 µM | – | – | – | – | – | – | – | – | – | – | –
Cc1ccc(Cl)cc1NC(=O)c1sc2nc3c(cc2c1N)C(=O)CCC3 | > 100 µM | > 100 µM | > 100 µM | 6.96 µM | 7.44 µM | > 100 µM | > 100 µM | – | > 100 µM | 50.4 µM | 3.33 µM | > 100 | > 100 | > 100 | 2.48 µM | 2.33 µM | 3.48 µM | 4.1 µM | 7.3 µM | –
O=c1c(-c2ccccc2)coc2cc(OC/C(=N/O)c3ccccc3)ccc12 | 43.5 µM | – | > 100 µM | – | 74.9 µM | 24.6 µM | 79.2 µM | – | 9.03 µM | 21.8 µM | – | 17.5 | 13.8 | 53 | – | 29.5 µM | 10.9 µM | 22.9 µM | 3.03 µM | –
CC(=O)OCC1OC(n2c(-c3ccc(C)cc3)cc(-c3ccccc3)c(C#N)c2=O)C(OC(C)=O)C(OC(C)=O)C1OC(C)=O (stereo not given) | > 100 µM | > 100 µM | > 100 µM | – | – | > 100 µM | > 100 µM | – | > 100 µM | – | – | – | – | > 100 | – | – | – | – | – | –
O=C1c2ccccc2S(=O)(=O)c2cc(-c3nn[nH]n3)ccc21 | > 100 µM | > 100 µM | > 100 µM | > 100 µM | > 100 µM | > 100 µM | > 100 µM | > 100 µM | > 100 µM | – | – | – | – | – | – | – | – | – | – | –
CCN1CCC(O)(c2ccc(Cl)cc2)C(C(=O)c2ccc(Cl)cc2)C1 (stereo not given) | > 100 µM | – | > 100 µM | > 100 µM | > 100 µM | > 100 µM | > 100 µM | > 100 µM | > 100 µM | – | – | – | – | 64.2 | – | – | – | – | – | –
COc1cccc(NC(=O)/C(Cc2nc3ccccc3nc2C)=N/NC(=O)C[n+]2ccccc2)c1 | > 100 µM | > 100 µM | > 100 µM | – | > 100 µM | > 100 µM | > 100 µM | > 100 µM | > 100 µM | – | – | – | – | 68.1 | – | – | – | – | – | –
C=C1C(=O)O[C@H]2[C@H]1CC/C(Cn1cc(-c3ccccc3C(F)(F)F)nn1)=C\CC[C@@]1(C)O[C@@H]21 | 2.93 µM | 2.63 µM | 3.86 µM | 2.32 µM | 22.6 µM | 3.44 µM | 17.5 µM | – | – | 1.45 µM | 1.31 µM | 1.81 | 1.87 | 8.49 | 1.07 µM | 10.3 µM | 1.72 µM | 2.97 µM | – | –
COc1ccccc1NC(=O)CC(=O)N/N=C/c1ccc(N(CCC#N)S(=O)(=O)c2ccccc2)cc1 | > 100 µM | > 100 µM | > 100 µM | – | > 100 µM | > 100 µM | > 100 µM | > 100 µM | > 100 µM | – | – | – | – | > 100 | – | – | – | – | – | –
OCC#Cc1ccccc1C#CCCCCCC#Cc1ccccc1C#CCO | 54 µM | 43.8 µM | 43.3 µM | – | 33.8 µM | 33.1 µM | – | 40.7 µM | 31.4 µM | 27.1 µM | 19.3 µM | 18.7 | – | – | – | 16.9 µM | 18.9 µM | – | 15.7 µM | 18.1
O=C1c2ccccc2-c2c1c1ccccc1c(=O)n2CCCn1ccnc1 | 3.43 µM | 2.05 µM | > 100 µM | > 100 µM | 2.99 µM | – | 93.4 µM | – | – | 0.885 µM | 0.443 µM | 2.86 | 0.73 | 6.26 | 6.15 µM | 0.896 µM | – | 5.82 µM | – | –
COc1cc2c(cc1OC)/C(=C\c1ccccc1N)C(=O)OC2 | 34.7 µM | 27.1 µM | 36.7 µM | 12.9 µM | 29.3 µM | 32.6 µM | 24.9 µM | – | 34.3 µM | – | – | – | – | 10.3 | – | – | – | – | – | –
Cc1cc2c(C)nn(Cc3ccc(Cl)cc3)c2c(C#N)c1C | > 100 µM | – | > 100 µM | > 100 µM | > 100 µM | – | – | > 100 µM | > 100 µM | – | – | – | – | > 100 | – | – | – | – | – | –
COc1ccc2c(c1)C(=O)c1c-2n(CCCI)c(=O)c2cc([N+](=O)[O-])ccc12 | 1.03 µM and 0.239 µM | 48.6 µM and 6.86 µM | 50 µM and 72.3 µM | 3.57 µM and 13.8 µM | 50 µM and 66.8 µM | 0.438 µM and 0.468 µM | 2.37 µM and 15.2 µM | 0.0888 µM and 0.143 µM | 17.4 µM and 37.9 µM | 0.138 µM and 0.0293 µM | 0.472 µM and 0.309 µM | – | – | – | 0.319 µM and 0.789 µM | 0.122 µM and 0.1 µM | 0.109 µM and 0.124 µM | 0.198 µM and 0.368 µM | 0.914 µM and 4.13 µM | 0.005
C=CC(Cl)(CBr)CCC(Br)C(C)(C)Cl (stereo not given) | 38.2 µM | – | 26.3 µM | 31.2 µM | 28.8 µM | 25.8 µM | 68.8 µM | – | 27.5 µM | – | – | – | – | 29.5 | – | – | – | – | – | –
NC(N)=NS(=O)(=O)c1ccc(Nc2c3ccccc3nc3c(C(=O)Nc4ccc(S(N)(=O)=O)cc4)cccc23)cc1 | > 100 µM | > 100 µM | > 100 µM | > 100 µM | > 100 µM | > 100 µM | > 100 µM | – | > 100 µM | – | – | – | – | > 100 | – | – | – | – | – | –
COC(=O)Nc1nc2ccc(Br)cc2[nH]1 | > 100 µM | – | > 100 µM | 67.2 µM | > 100 µM | > 100 µM | > 100 µM | > 100 µM | > 100 µM | – | – | – | – | > 100 | – | – | – | – | – | –
O=C(NC12CC3CC(CC(C3)C1)C2)C(=O)c1c[nH]c2ccccc12 | 28.8 µM | – | 29.3 µM | – | 22.4 µM | 30.4 µM | – | 48.7 µM | 25.9 µM | – | – | – | – | 55.3 | – | – | – | – | – | –
CCN(CC)C(=O)C(C)n1cc(C)c(=O)[nH]c1=O (stereo not given) | > 100 µM | – | > 100 µM | > 100 µM | > 100 µM | > 100 µM | 98.6 µM | – | – | – | – | – | – | > 100 | – | – | – | – | – | –
N#CC1CCCCCCCCCCC(=O)N(CCCl)C1=O (stereo not given) | > 100 µM | > 100 µM | > 100 µM | > 100 µM | > 100 µM | > 100 µM | > 100 µM | – | > 100 µM | – | – | – | – | > 100 | – | – | – | – | – | –
